Each molecule was assayed against Human recombinant PDE4 (Genbank accession no NM—006203) (Homo sapiens, UniProt Q08499) (assay: PDE4 assay (SPA, cAMP cleavage)). Conditions: Example 52; human recombinant PDE4, 1 hour incubation, cAMP 1×10^-5M, test compound up to 10 μM; read-out: PDE4 IC50 range.
Chain of Human recombinant PDE4 (Genbank accession no NM—006203) (Q08499 1-673 isoform Q08499-2): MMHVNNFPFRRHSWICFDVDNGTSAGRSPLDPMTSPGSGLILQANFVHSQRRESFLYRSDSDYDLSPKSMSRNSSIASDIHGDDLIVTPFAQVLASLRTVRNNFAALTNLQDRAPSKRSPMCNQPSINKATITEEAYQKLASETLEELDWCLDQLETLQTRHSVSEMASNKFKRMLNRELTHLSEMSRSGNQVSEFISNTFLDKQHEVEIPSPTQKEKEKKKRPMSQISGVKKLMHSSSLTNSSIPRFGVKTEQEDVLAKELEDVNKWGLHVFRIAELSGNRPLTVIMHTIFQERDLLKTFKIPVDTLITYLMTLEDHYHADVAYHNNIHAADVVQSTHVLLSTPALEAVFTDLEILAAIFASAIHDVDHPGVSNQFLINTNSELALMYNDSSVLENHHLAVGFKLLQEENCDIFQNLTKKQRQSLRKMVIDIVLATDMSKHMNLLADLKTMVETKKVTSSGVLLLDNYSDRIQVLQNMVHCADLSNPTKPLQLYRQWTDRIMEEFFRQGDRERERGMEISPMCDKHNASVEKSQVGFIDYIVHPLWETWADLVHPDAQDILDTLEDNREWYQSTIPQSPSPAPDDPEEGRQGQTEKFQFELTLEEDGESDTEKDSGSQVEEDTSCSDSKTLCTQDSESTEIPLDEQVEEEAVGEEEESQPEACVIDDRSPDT
Format: biochemical
Method: At the end of the incubation, the cleavage of the substrate was evaluated by the binding of the AMP product to SPA beads, which generate chemoluminescence when bound to the radioactive tracer. The AMP product inhibited the binding of the radioactive tracer to the beads, and the luminescent signal was competed.
For `COc1ccc(-c2ccc(C#N)cc2)n2nc(C3CC3)nc12` [Compound 132, 4-(2-Cyclopropyl-8-methoxy-[1,2,4]triazolo[1,5-a]pyridin-5-yl)-benzonitrile], the IC50 was less than 500 nM.
With `COc1cccc(-c2ccc(OC)c3nc(C4CC4)nn23)c1` [Compound 109, 2-Cyclopropyl-8-methoxy-5-(3-methoxy-phenyl)-[1,2,4]triazolo[1,5-a]pyridine] the IC50 was less than 500 nM.
For `COc1ccc(-c2ccc(C(N)=O)cc2)n2nc(C3CC3)nc12` [Compound 123, 4-(2-Cyclopropyl-8-methoxy-[1,2,4]triazolo[1,5-a]pyridin-5-yl)-benzamide], the IC50 was less than 500 nM.
With `CNC(=O)c1cccc(-c2ccc(OC)c3nc(C4CC4)nn23)c1` [Compound 114, 3-(2-Cyclopropyl-8-methoxy-[1,2,4]triazolo[1,5-a]pyridin-5-yl)-N-methyl-benzamide] the IC50 was greater than 1000 nM.
For `COCCOc1ccc(-c2ccc(OC)c3nc(C4CC4)nn23)cc1` [Compound 122, 2-Cyclopropyl-8-methoxy-5-[4-(2-methoxy-ethoxy)-phenyl]-[1,2,4]triazolo[1,5-a]pyridine], the IC50 was greater than 1000 nM.
`COc1ccc(-c2ccc(Cl)cc2Cl)n2nc(C3CC3)nc12` [Compound 127, 2-Cyclopropyl-5-(2,4-dichloro-phenyl)-8-methoxy-[1,2,4]triazolo[1,5-a]pyridine] showed an IC50 of 500 to 1000 nM.

Same assay, conditions: Example 53; PDE4 assay as in example 52; read-out: PDE4 IC50 range
`COc1ccc(-c2ccc(C#N)cc2)n2nc(C3(C(=O)NCC(C)C)CC3)nc12` [Compound 214, 1-[5-(4-Cyano-phenyl)-8-methoxy-[1,2,4]triazolo[1,5-a]pyridin-2-yl]-cyclopropanecarboxylic acid isobutyl-amide] was tested, and the IC50 was less than 500 nM.
For `CCCNC(=O)OCC1(c2nc3c(OC)ccc(-c4ccc5c(c4)CCC5=O)n3n2)CC1` [Compound 230, Propyl-carbamic acid 1-[8-methoxy-5-(1-oxo-indan-5-yl)-[1,2,4]triazolo[1,5-a]pyridin-2-yl]-cyclopropylmethyl ester], the IC50 was less than 500 nM.
For `COc1cc(-c2ccc(OC)c3nc(C4(COC(=O)N(C)C)CC4)nn23)ccc1C#N` [Compound 231, Dimethyl-carbamic acid 1-[5-(4-cyano-3-methoxy-phenyl)-8-methoxy-[1,2,4]triazolo[1,5-a]pyridin-2-yl]-cyclopropylmethyl ester], the IC50 was less than 500 nM.
`COc1ccc(-c2ccc3c(c2)COC3=O)n2nc(C3(C(=O)NCC4CCCCC4)CC3)nc12` [Compound 270, 1-[8-Methoxy-5-(1-oxo-1,3-dihydro-isobenzofuran-5-yl)-[1,2,4]triazolo[1,5-a]pyridin-2-yl]-cyclopropanecarboxylic acid cyclohexylmethyl-amide] gave an IC50 of less than 500 nM.
Molecule `COc1ccc(-c2cccc(C#N)c2)n2nc(C3(CNC(=O)C(C)C)CC3)nc12` [Compound 154, N-{1-[5-(3-Cyano-phenyl)-8-methoxy-[1,2,4]triazolo[1,5-a]pyridin-2-yl]-cyclopropylmethyl}-isobutyramide] has an IC50 of less than 500 nM.
`COc1ccc(-c2cncc(C#N)c2)n2nc(C3(COC(=O)NC(C)C)CC3)nc12` [Compound 232, Isopropyl-carbamic acid 1-[5-(5-cyano-pyridin-3-yl)-8-methoxy-[1,2,4]triazolo[1,5-a]pyridin-2-yl]-cyclopropylmethyl ester] was tested, and the IC50 was less than 500 nM.
Molecule `COc1cc(-c2ccc(OC)c3nc(C4(C(=O)NCc5ccccc5)CC4)nn23)ccc1C#N` [Compound 178, 1-[5-(4-Cyano-3-methoxy-phenyl)-8-methoxy-[1,2,4]triazolo[1,5-a]pyridin-2-yl]-cyclopropanecarboxylic acid benzylamide] has an IC50 of less than 500 nM.
`COc1ccc(-c2ccc(C#N)cc2)n2nc(C3(C(=O)NCc4ccccc4)CC3)nc12` [Compound 206, 1-[5-(4-Cyano-phenyl)-8-methoxy-[1,2,4]triazolo[1,5-a]pyridin-2-yl]-cyclopropanecarboxylic acid benzylamide] was tested, and the IC50 was less than 500 nM.
With `COc1ccc(-c2ccc(C#N)cc2)n2nc(C3(C(=O)NCc4cccnc4)CC3)nc12` [Compound 203, 1-[5-(4-Cyano-phenyl)-8-methoxy-[1,2,4]triazolo[1,5-a]pyridin-2-yl]-cyclopropanecarboxylic acid (pyridin-3-ylmethyl)-amide] the IC50 was less than 500 nM.
